Paper PMC9916857, “Triterpenoids from Kochiae Fructus: Glucose Uptake in 3T3-L1 Adipocytes and α-Glucosidase Inhibition, In Silico Molecular Docking” (International Journal of Molecular Sciences, 2023)
“Also recorded” adds a separate entry of the source. Marks after values point to notes of the source that are not given here.

Columns and labels:
α-glucosidase [1] = experiment: In vitro α-glucosidase inhibition assay (pNPG substrate); format: biochemical; settings: for Inhibitory Rate (%): mean ± SD (n = 3); for IC50: mean ± SD, n = 3
Experimental: The α-glucosidase inhibition assay was carried out on the basis of the method reported by Zhang et al., with minor modifications. […] […] To initiate the reaction, pNPG (40 μL) was added to the reaction mixture and incubated at 37 °C for 30 min. The reaction was terminated by adding 20 μL of Na2CO3, after which the absorbance was determined at 405 nm by a microplate reader (SpectraMax190, Micro-g Biotech, Guangzhou, China).

[2] = biological target: α-glucosidase−pNPG complex; experiment: Kinetics of α-glucosidase inhibition, S/v versus [I] plot (Ki’); format: biochemical
Experimental: (§1) The kinetic analysis of compounds 3, 9, and 13 were measured using the reaction conditions in Section 3.6. Typically, three different concentrations of each compound around the IC50 values were chosen. Under each concentration, α-glucosidase activity was assayed by varying the concentration of pNPG as a substrate. […] Ki and Ki’ values were determined from 1/v versus [I] (Dixon plot) and S/v versus [I] plots, respectively.

α-glucosidase [3] = experiment: Kinetics of α-glucosidase inhibition (Lineweaver–Burk and Dixon plots); format: biochemical; settings: for Ki: Dixon plot, 1/v versus [I], read-out: Ki (inhibitor binding to α-glucosidase); for Inhibition type: Lineweaver–Burk and Dixon plots; for Change of Km and Vmax with increased concentration of inhibitor: Lineweaver–Burk plot
Experimental: as §1

3T3-L1 adipocytes [4] = experiment: Insulin-induced glucose uptake assay in 3T3-L1 adipocytes; format: cell-based, murine
Experimental: (§2) The murine 3T3-L1 preadipocytes were supplied by the American Type Culture Collection (ATCC, Manassas, VA, USA). The cells were cultured in high-glucose DMEM supplemented with 10% (v/v) newborn calf serum (NBCS), 1% (v/v) Pen-Strep solution (P/S) at 37 °C in a humidified atmosphere of 5% CO2, and then starved until the cells reached confluence (day 0). Two days later (day 2), the cells were cultured in DMEM supplemented with 10% (v/v) fetal bovine serum (FBS), 1% (v/v) P/S, 0.5 mM 3-isobutyl-1-methylxanthine (IBMX), 1 μM dexamethasone (DEX), 1 μM rosiglitazone (ROSI) and 100 nM insulin. Three days after (day 5) the induction, the culture medium was replaced with DMEM containing 10% (v/v) FBS, 1% (v/v) P/S, and 100 nM insulin for one day (day 6). Then the cells were completely differentiated into mature adipocytes (Figure 11).
The mature adipocytes were inoculated in a 96-well plate at 5 × 10^4 cells per well for 24 h. The 3T3-L1 adipocytes were divided into model groups (blank control), insulin group (250 ng/mL, positive control), and sample group (20 μM). […] The absorbance value was detected by a microplate reader at 505 nm. The glucose uptake rate was calculated as follows:Glucose uptake rate (%) = [1 − A2/A1] × 100(1) where A1 is the absorbance of the mixed-glucose, DMEM-supplemented control, and A2 is the absorbance of the blank, insulin, or sample group.

3T3-L1 adipocytes [5] = experiment: Cell viability (CellTiter 96 AQueous One Solution) after the glucose uptake experiment; format: cell-based, murine; settings: compounds at 20 μM, compared to the control group
Experimental: as §2, with “Then the cells were completely differentiated into mature adipocytes (Figure 11).” left out
Cell viability was detected by using a CellTiter 96® AQueous One Solution Cell Proliferation Assay (Promega Corporation, Madison, WI, USA) according to the manufacturer’s instructions after the glucose uptake experiment. CellTiter 96® AQueous One Solution Cell Proliferation Assay reagent (20 µL/well) was added to the plate and incubated at 37 °C for 180 min before absorbance was measured at 490 nm, and the relative cell viability was calculated as follows:Relative cell viability (%) = A1/A2 × 100(2) where […].

[6] = percent inhibition at a concentration of 50 μM

| IC50 (α-glucosidase [1]) [µM] | Inhibitory Rate (%) (α-glucosidase [1]; [6]) | Molecule | also measured |
| --- | --- | --- | --- |
|  |  | C[C@H]1O[C@H](O[C@H]2[C@H](O)[C@@H](O)[C@@H](O[C@H]3[C@H](O)[C@@H](O)C(O)O[C@@H]3CO)O[C@@H]2CO)[C@H](O)[C@@H](O)[C@@H]1N[C@H]1C=C(CO)[C@@H](O)[C@H](O)[C@H]1O (some centres unmarked) [Acarbose, acarbose, reference compound] | Inhibitory Rate (%) (α-glucosidase [1]; percent inhibition at a concentration of 0.012 μM): 87.04 ± 0.29 ^a % |
| > 50 | 13.71 ± 0.54 ^j % | CC1(C)CCC2(C(=O)O)CCC3(C)C(=CCC4C5(C)CCC(OC6OC(C(=O)O)C(O)C(OC7OCC(O)C(O)C7O)C6O)C(C)(C(=O)O)C5CCC43C)C2C1 [Compound 1, 3(β)-3-O-β-D-xylopyranosly(1→3)-β-D-glucopyranosiduronic acid-12-en-23,28-dioic acid] |  |
| > 50 | 14.05 ± 4.90 ^j % | COC(=O)C1OC(OC2CCC3(C)C(CCC4(C)C3CC=C3C5CC(C)(C)CCC5(C(=O)O)CCC34C)C2(C)C(=O)O)C(O)C(OC2OCC(O)C(O)C2O)C1O [Compound 2, 3(β)-3-O-β-D-xylopyranosly(1→3)-β-D-glucopyranosiduronic acid 6-methyl ester-12-en-23,28-dioic acid] |  |
| 23.5 ± 3.37 | 59.79 ± 1.04 ^d % | CC1(C)CCC2(C(=O)OC3OC(CO)C(O)C(O)C3O)CCC3(C)C(=CCC4C5(C)CC(O)C(O)C(C)(C)C5CCC43C)C2C1 [Compound 3, 2β,3β-dihydroxyolean-12-en-28-oic acid 28-O-β-D-glucopyranoside] | Ki’ (inhibitor binding to the α-glucosidase−pNPG complex) [2]: 47.89 ± 1.37 μM; Ki (α-glucosidase [3]): 56.9 ± 1.23 µM; Inhibition type (α-glucosidase [3]): mixed-type; Change of Km and Vmax with increased concentration of inhibitor (α-glucosidase [3]): Vmax values decreased and the Km values increased |
| > 50 | 26.28 ± 1.01 ^i % | CC1(C)CC[C@]2(C(=O)O)CC[C@]3(C)C(=CC[C@@H]4[C@@]5(C)CC[C@H](O[C@@H]6O[C@H](C(=O)O)[C@@H](O)[C@H](O[C@@H]7OC[C@@H](O)[C@H](O)[C@H]7O)[C@H]6O)C(C)(C)[C@@H]5CC[C@]43C)[C@@H]2C1 [Compound 4, momordin Ic] |  |
| > 50 | 29.62 ± 2.26 ^i % | COC(=O)C1OC(OC2CCC3(C)C(CCC4(C)C3CC=C3C5CC(C)(C)CCC5(C(=O)O)CCC34C)C2(C)C)C(O)C(OC2OCC(O)C(O)C2O)C1O (centres unmarked) [Compound 5, momordin Ic 6’-methyl ester] |  |
| > 50 | 35.00 ± 0.40 ^h % | CCOC(=O)C1OC(OC2CCC3(C)C(CCC4(C)C3CC=C3C5CC(C)(C)CCC5(C(=O)O)CCC34C)C2(C)C)C(O)C(OC2OCC(O)C(O)C2O)C1O (centres unmarked) [Compound 6, momordin Ic ethyl ester] |  |
| > 50 | 52.71 ± 0.85 ^f % | CC1(C)CC[C@]2(C(=O)O[C@@H]3O[C@H](CO)[C@@H](O)[C@H](O)[C@H]3O)CC[C@]3(C)C(=CC[C@@H]4[C@@]5(C)CC[C@H](O[C@@H]6O[C@H](C(=O)O)[C@@H](O)[C@H](O[C@@H]7OC[C@@H](O)[C@H](O)[C@H]7O)[C@H]6O)C(C)(C)[C@@H]5CC[C@]43C)[C@@H]2C1 [Compound 7, momordin IIc] |  |
| > 50 | 57.02 ± 36.3 ^e % | COC(=O)C1OC(OC2CCC3(C)C(CCC4(C)C3CC=C3C5CC(C)(C)CCC5(C(=O)OC5OC(CO)C(O)C(O)C5O)CCC34C)C2(C)C)C(O)C(OC2OCC(O)C(O)C2O)C1O (centres unmarked) [Compound 8, momordin IIc 6’-methyl ester] |  |
| 4.29 ± 0.52 | 74.41 ± 1.02 ^b % | CC1(C)CCC2(C(=O)OC3OC(CO)C(O)C(O)C3O)CCC3(C)C(=CCC4C5(C)CCC(OC6OC(C(=O)O)C(O)C(OC7OCC(O)C(O)C7O)C6OC6OC(CO)C(O)C(O)C6O)C(C)(C)C5CCC43C)C2C1 [Compound 9, 2’-O-β-D-glucopyranosyl momordin IIc] | Ki’ (inhibitor binding to the α-glucosidase−pNPG complex) [2]: 19.52 ± 0.26 μM; Ki (α-glucosidase [3]): 48.88 ± 0.07 µM; Inhibition type (α-glucosidase [3]): mixed-type; Change of Km and Vmax with increased concentration of inhibitor (α-glucosidase [3]): both the Km and Vmax values decreased |
| > 50 | 53.98 ± 1.65 ^e % | CC1(C)CC[C@]2(C(=O)O)CC[C@]3(C)C(=CC[C@@H]4[C@@]5(C)CC[C@H](O)[C@@](C)(C(=O)O)[C@@H]5CC[C@]43C)[C@@H]2C1 [Compound 11, gypsogenic acid] |  |
|  | 41.48 ± 1.66 ^g % | CC1(C)CCC2(C(=O)OC3OC(CO)C(O)C(O)C3O)CCC3(C)C(=CCC4C5(C)CCC(O)C(C)(C)C5CCC43C)C2C1 [Compound 12, oleanolic acid 28-O-β-D-glucopyranosyl ester] |  |
| 17 ± 2.7 | 69.91 ± 0.59 ^c % | CC1(C)CC2C3=CCC4[C@@]5(C)CC[C@H](O)C(C)(C)C5CC[C@@]4(C)[C@]3(C)CC[C@@]2(C(=O)O)[C@H](O)C1 (some centres unmarked) [Compound 13] | Effect on glucose uptake (3T3-L1 adipocytes [4]; compound at 20 μM, 24 h, p < 0.001 versus model group): potent effect; also recorded: strong effect; also recorded: significant promotion; Ki’ (inhibitor binding to the α-glucosidase−pNPG complex) [2]: 8.82 ± 0.06 μM; Cell viability / cytotoxicity (3T3-L1 adipocytes [5]): without inhibitory effects on cell viability; Ki (α-glucosidase [3]): 13.6 ± 0.42 µM; Inhibition type (α-glucosidase [3]): mixed-type; Change of Km and Vmax with increased concentration of inhibitor (α-glucosidase [3]): both the Km and Vmax values decreased |
| > 50 | 17.49 ± 4.45 ^j % | CC1(C)C=C2C3CCC4[C@@]5(C)CC[C@H](O[C@@H]6O[C@H](CO)[C@@H](O)[C@H](O)[C@H]6O)C(C)(C)C5CC[C@@]4(C)[C@]3(C)CC[C@@]2(C(=O)O)CC1 (stereo partly drawn) [Compound 14, (3β)-3-(β-D-glucopyranosyloxy)olean-18-en-28-oic acid] |  |
|  |  | insulin | Effect on glucose uptake (3T3-L1 adipocytes [4]; insulin at 250 ng/mL (positive control), p < 0.001 versus control group): significantly promote |
